Results: US20230096528A1, “Pharmaceutical Composition for Treatment or Prevention of Multiple Inflammatory disorders” (priority 2019, published 2023)

Legend:
[1] = tested on: biomarkers (chemokines, CSFs, interleukins, IFNs); test: Biomarkers compared across many studies (Table 2); format: in vivo; settings: PO 92.4 mg/kg DA BID
Protocol: The many examples provided herein show the effect of the denatonium salts on various in vivo and in vitro models of various disease indications. In addition, blood samples were taken from the tested (and control) animals and various biomarkers were measured and compared. FIGS. 70A-C show graphs comparing biomarkers across many studies. […] It should be noted that clusters of multiple biomarkers predict effectiveness for each disease indication and that grouping is shown in FIG. 71.

[2] = tested on: DSS-induced colitis in mice; test: Dextran sulfate sodium (DSS)-induced colitis in mice (Example 3); format: in vivo
Excerpt: This example provides the results of an in vivo study in a dextran sulfate sodium (DSS)-induced colitis in mice model. Inflammatory bowel diseases (IBD), mainly comprising ulcerative colitis and Crohn's Disease, are complex and multifactorial diseases with unknown etiology. To study human IBD mechanistically, a number of murine models of colitis have been developed. These models are tools to decipher underlying mechanisms of IBD pathogenesis as well as to evaluate potential therapeutics. […] Moreover, many existing IBD-approved drugs have been studied in this model to allow a comparison of new potential drug compounds as compared with existing drugs with approved IBD indications. […] mice were divided into 5 groups of 3-10 mice, provided with standard mouse chow diet ad libitum, and housed up to 5 per cage. Dexamethasone 21-phosphate disodium salt (DMS; Alfa Aesar Catalog #J64083-1G, Lot R02F035) (was used as a positive control. Hemoccult kits were obtained from Beckman (Hemoccult SENSA kit). Dextran sodium sulfate (DSS) reagent grade (MPI Catalog #160110, Lot #6046H, MW 36,000-50,000, CAS 9011-18-1) was supplemented in the water of certain groups to induced IBD-like symptoms. On day −3 treatment began prior to DSS delivery. On day 1 all mice were pre-weighed and given fresh 4-5% DSS in water every day for 5 days and water is then given for the remainder of the study to elicit disease. An additional control group was given water (no DSS) for the duration of the study (10 days). Body weight was measured daily, fecal blood status (hemoccult) was measured 3× per week, fecal consistency 3× per week and general health determined daily. Mice were sacrificed on day 10 and serum obtained for cytokine analysis and colon length and weight determined. There were two control groups of water only and DSS without drug treatment. There were two treatment groups at 69.3 mg/kg (n=10) bid and 23.1 mg/kg bid (n=10).

[3] = tested on: mouse model of acute lung injury; test: Second modified acute lung injury plus hyperthermia study (Example 8); settings: for Tolerability of three days of repeat dosing: mouse, in vivo
Protocol: Lung lavage fluid was measured and cytokine analysis. Statistics was one-way ANOVA followed by Tukey's multiple comparison post hoc test for data with normal distribution; Kruskal-Wallis test followed by Dunn's multiple comparison post hoc test for data with skewed distribution; and the ROUT method for identifying outliers. Control or drug administered for 3 days, then LPS at 50 μL of 1 mg/ml delivered intratracheally with a Penn Century needle where a core temperature of 39 C at 24 hours post LPS and then sacrifice to measure lung lavage fluid protein concentration and serum cytokine levels.
The same procedure was used as in Example 7. Starting three days before the induction of lung injury, groups of six CD-1 mice each were treated prophylactically with vehicle or 92.4 mg/kg denatonium acetate (DA) (administered by twice-daily (BID) oral gavage (PO)) or with 3 mg/kg DA (administered by once-daily (QD) intraperitoneal (IP) injection). On Day 0, lung injury was induced by intratracheal instillation with 50 μL of 1 mg/mL bacterial lipopolysaccharide (LPS), and hyperthermia was induced by placing the animals in a 39° C. incubator. On Day 1 (i.e., 24 hours after induction), animals were euthanized and bronchoalveolar lavage fluid (BALF) was collected. The BALF specimens were assessed for cytokine concentrations (using a multiplex bead-based assay), and protein levels, and neutrophil counts (by fluorescence-activated cell sorting (FACS)). Additionally, lungs were collected, fixed, stained with Masson's trichrome, and assessed histologically.

[4] = high-dose DA, no significant difference
[5] = oral 92.4 mg/kg BID, vs vehicle

SMILES: CC(=O)[O-].CC[N+](CC)(CC(=O)Nc1c(C)cccc1C)Cc1ccccc1 [DA, denatonium acetate]
- Eotaxin: Decreased Percentage Compared to Vehicle [1]: −18.6%
- G-CSF: Decreased Percentage Compared to Vehicle [1]: −37.5%
- GM-CSF: Decreased Percentage Compared to Vehicle [1]: −2.3%
- IFN-γ: Decreased Percentage Compared to Vehicle [1]: −37.3%
- IL-1α: Decreased Percentage Compared to Vehicle [1]: −18.2%
- IL-1β: Decreased Percentage Compared to Vehicle [1]: −12.0%
- IL-3: Decreased Percentage Compared to Vehicle [1]: −74.5%
- IL-5: Decreased Percentage Compared to Vehicle [1]: −29.1%
- IL-6: Decreased Percentage Compared to Vehicle [1]: −34.2%
- IL-10: Decreased Percentage Compared to Vehicle [1]: −92.5%
- IL-12 (p70): Decreased Percentage Compared to Vehicle [1]: −28.0%
- IL-17: Decreased Percentage Compared to Vehicle [1]: −21.2%
- KC: Decreased Percentage Compared to Vehicle [1]: −21.6%
- LIX: Decreased Percentage Compared to Vehicle [1]: −7.3%
- MCP-1: Decreased Percentage Compared to Vehicle [1]: −24.2%
- MIG: Decreased Percentage Compared to Vehicle [1]: −13.2%
- MIP-1α: Decreased Percentage Compared to Vehicle [1]: −3.4%
- MIP-1β: Decreased Percentage Compared to Vehicle [1]: −10.2%
- MIP-2: Decreased Percentage Compared to Vehicle [1]: −76.3%
- RANTES: Decreased Percentage Compared to Vehicle [1]: −20.6%
- Body weight at day 10 ([2]; 69.3 mg/kg BID, vs vehicle): significant effect against DSS-induced body weight loss
- Combined fecal score during the study period ([2]; DA treatment): significant main effect
- Fecal consistency score during the study period ([2]; DA treatment): significant main effect
- Fecal occult blood scores during the study period ([2]; DA treatment): significant main effect
- Colon length at day 10 [2, 4]: could counteract DSS-induced decrease
- Colon weight at day 10 [2, 4]: could counteract DSS-induced decrease
- Spleen weight at day 10 ([2]; high-dose DA, no significant effect): trend to counteract DSS-induced spleen weight loss
- Mice found dead on Day 1 ([3]; 92.4 mg/kg PO group, within 24 h after LPS instillation, also one vehicle-dosed, not attributed to test article): one
- BALF neutrophil counts (by FACS assay) ([3]; IP 3 mg/kg QD): nominal decreases
- BALF protein concentrations ([3]; IP 3 mg/kg QD): nominal (but nonsignificant) changes
- Number of 32 tested BALF cytokines significantly decreased compared to vehicle ([3]; IP 3 mg/kg QD): 10
- Severity of lung pathology (by histological scoring) ([3]; IP 3 mg/kg QD): nominal decreases
- G-CSF concentration in BALF ([3]; IP 3 mg/kg QD, vs vehicle): significant decreases
- IL2 concentration in BALF ([3]; IP 3 mg/kg QD, vs vehicle): significant decreases
- IL-3 concentration in BALF ([3]; IP 3 mg/kg QD, vs vehicle): significant decreases
- IL-4 concentration in BALF ([3]; IP 3 mg/kg QD, vs vehicle): significant decreases
- IL-13 concentration in BALF ([3]; IP 3 mg/kg QD, vs vehicle): significant decreases
- IP-10 concentration in BALF ([3]; IP 3 mg/kg QD, vs vehicle): significant decreases
- M-CSF concentration in BALF ([3]; IP 3 mg/kg QD, vs vehicle): significant decreases
- MCP-1 concentration in BALF ([3]; IP 3 mg/kg QD, vs vehicle): significant decreases
- MIG concentration in BALF ([3]; IP 3 mg/kg QD, vs vehicle): significant decreases
- eotaxin concentration in BALF ([3]; IP 3 mg/kg QD, vs vehicle): significant decreases
- Tolerability of three days of repeat dosing ([3]; ip, 3 mg/kg): well-tolerated
- Tolerability of three days of repeat dosing ([3]; po, 92.4 mg/kg): well-tolerated
- BALF neutrophil counts (by FACS assay) ([3]; oral 92.4 mg/kg BID): nominal decreases
- BALF protein concentrations ([3]; oral 92.4 mg/kg BID): nominal (but nonsignificant) changes
- Number of 32 tested BALF cytokines significantly decreased compared to vehicle ([3]; oral 92.4 mg/kg BID): 7
- Severity of lung pathology (by histological scoring) ([3]; oral 92.4 mg/kg BID): nominal decreases
- IL-2 concentration in BALF [3, 5]: significant decreases
- IL-3 concentration in BALF [3, 5]: significant decreases
- IL-10 concentration in BALF [3, 5]: significant decreases
- IL-13 concentration in BALF [3, 5]: significant decreases
- MCSF concentration in BALF [3, 5]: significant decreases
- MIG concentration in BALF [3, 5]: significant decreases
